Patent US12297193B2, “PTPN2/PTP1B degrader and therapeutic method thereof” (NORTHRIDGE HEALTH GROUP (HONG KONG) CO., LIMITED, priority 2023, dated 2025)
Entries after “also recorded” stand apart in the source; their conditions may differ. Where two headings read alike, the source gives them in different places.

Assays:
[1] = target: T1, PTPN2 (Homo sapiens, UniProt P17706); assay: Western blot, PTPN2 degradation in HEK293T cells; assay type: cell-based; conditions: 48 hours incubation; for DC50 / Dmax: Western blot; for DC50: read-out: Relative DC50, PTPN2 degradation; for Dmax: HEK-293T
T1 construct: endogenous in cells; host or cells: HEK293T
T1 sequence (P17706 1-415): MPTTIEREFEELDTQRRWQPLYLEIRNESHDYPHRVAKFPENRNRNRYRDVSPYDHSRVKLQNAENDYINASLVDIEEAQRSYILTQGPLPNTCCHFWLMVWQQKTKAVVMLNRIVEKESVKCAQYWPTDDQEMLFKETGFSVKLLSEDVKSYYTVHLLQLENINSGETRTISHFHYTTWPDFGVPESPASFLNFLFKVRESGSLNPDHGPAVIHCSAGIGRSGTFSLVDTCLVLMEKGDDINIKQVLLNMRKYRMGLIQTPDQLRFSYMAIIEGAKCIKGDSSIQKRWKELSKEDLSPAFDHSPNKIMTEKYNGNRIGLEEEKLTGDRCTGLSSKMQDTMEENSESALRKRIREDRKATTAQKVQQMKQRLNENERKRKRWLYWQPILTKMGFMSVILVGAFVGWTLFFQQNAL
Procedure: (§1) 1. Sample preparation: 150,000 HEK293T cells per well were seeded in a 24-well plate and incubated overnight. Compounds were added to the wells at the final concentrations of 20 μM, 10 μM, 5 μM, 2 μM, 1 μM, 500 nM, 200 nM, 100 nM, 50 nM, 20 nM, 5 nM, 0 nM (solvent control) and medium (negative control) and incubated for 48 hours. After incubation, the supernatants were discarded. Cells were washed with pre-chilled PBS once, 40 μL cell lysis buffer were added to lyse the cells and then centrifuged at 14000 g, 4° C. for 20 mins. The supernatant was aspirated and the protein concentration were quantified. 5× loading buffer was added into the samples, and the samples were heated at 70° C. for 10 minutes.
(§2) 2. Experimental procedure: 20 μg protein were added to each well then start SDS-PAGE electrophoresis. The protein was transferred to the PVDF membrane.
(§3) The blotting current was set at 250 mA for 90 min. 5% BSA in TBST was used to block the membrane for 1 h at room temperature. After diluting the primary antibody according to Table 2, the membrane was hybridized overnight at 4° C. The membrane was washed three times with TBST, 7 minutes each time. After diluting the secondary antibody, the membrane was incubated for 2 h at room temperature. The membrane was washed three times with TBST for 7 min each time.
(§4) ImageJ software was used to detect the gray value of each band and enter it into the following formula as the degradation rate (D): […]
(§5) D is the degradation rate, V refers to the gray value: target refers to the name of the protein targeted for degradation, housekeeping refers to housekeeping proteins such as GAPDH and beta-actin: DMSO refers to the solvent DMSO added only to dissolve PROTAC and incubate cells: Lane X refers to a lane with a specific incubation concentration; Lane Y refers to a lane where only the solvent DMSO is added to incubate cells.
(§6) A graph was drawn with degradation rate as the vertical axis and drug incubation concentration as the horizontal axis, and DC50 and Dmax were read and recorded in Tables 3, 4, 5 and 6.

[2] = PK study in SD rats after a single intravenous administration; assay type: in vivo; conditions: for clearance / concentration at 0.083 h / concentration at 0.25 h / concentration at 0.5 h / concentration at 1 h / concentration at 2 h / concentration at 4 h / concentration at 8 h / concentration at 10 h / concentration at 24 h / AUC(0-t): Sprague-Dawley (SD), rat, plasma; for AUC(0-t): read-out: AUC0-24 h
Procedure: A PK study of the compounds after a single intravenous administration.
SD rats were randomly assigned to 5 groups (3 rats/group). Blood samples were collected from animals at 0.083 h, 0.25 h, 0.5 h, 1 h, 2 h, 4 h, 8 h, 10 h and 24 h after administration. Blood samples were collected in an anticoagulant tube containing EDTA-K2. The concentration of compounds in plasma were determined by an LC-MS/MS method with the lower limit of quantitation (LLOQ) of 0.50 ng/mL. Pharmacokinetic parameters were calculated with WinNonlin to assess the PK characteristics in SD rats. The formulation prescription was DMSO: Cremophor EL: 5% Glucose Solution=5:5:90 (v/v/v).

[3] = system: HEK293/Luc (IFN-γ) stable cell line; assay: Luciferase reporter assay in HEK293/Luc (IFN-γ) cells; assay type: cell-based; conditions: Homo sapiens; stimulated with 30 ng/mL IFN-γ in HEK293/Luc; 6 h incubation; read-out: Absolute EC50
Procedure: HEK293/Luc (IFN-γ) stable cell line (Cat: M00953) and Fire-Lumi luciferase detection kit (Cat: L00877C) were purchased from GenScript. The complete culture medium formulation was DMEM containing 10% FBS and 1% Penicillin-Streptomycin. For EC50 detection, 60 μL HEK293/Luc (IFN-γ) cells were seeded at the density of 10,000 cells/well into 384 well assay plates (761601, NEST) using the medium above mentioned.
The working solutions for each sample were prepared triplicated at 9 gradient doses, starting from 10 µM and diluted by 4 folds. The IFN-γ working solution was prepared at 0.8 ng/mL concentration. The sample working solution and IFN-γ working solution were mixed at the volume of 1:1, and then 20 μl/well of the aliquot was added into the 384-well plate and cells were incubated at 37° C./5% CO2 for 6 h. 40 μL/well prewarmed detection reagents were added into the cells. Luminescent signals could be determined after 5-minute incubation. The data were plotted and four-parameter fitting was performed on the test data to obtain the relative EC50 value of the curve by Prism GraphPad 9 software (Table 1).

[4] = target: T2, PTP1B (Homo sapiens, UniProt P18031); assay: Western blot, PTP1B degradation in HEK293T cells; assay type: cell-based; conditions: 48 hours incubation; for DC50 / Dmax: Western blot; for DC50: read-out: Relative DC50, PTP1B degradation; for Dmax: HEK-293T
T2 construct: endogenous in cells; host or cells: HEK293T
T2 sequence (P18031 1-435): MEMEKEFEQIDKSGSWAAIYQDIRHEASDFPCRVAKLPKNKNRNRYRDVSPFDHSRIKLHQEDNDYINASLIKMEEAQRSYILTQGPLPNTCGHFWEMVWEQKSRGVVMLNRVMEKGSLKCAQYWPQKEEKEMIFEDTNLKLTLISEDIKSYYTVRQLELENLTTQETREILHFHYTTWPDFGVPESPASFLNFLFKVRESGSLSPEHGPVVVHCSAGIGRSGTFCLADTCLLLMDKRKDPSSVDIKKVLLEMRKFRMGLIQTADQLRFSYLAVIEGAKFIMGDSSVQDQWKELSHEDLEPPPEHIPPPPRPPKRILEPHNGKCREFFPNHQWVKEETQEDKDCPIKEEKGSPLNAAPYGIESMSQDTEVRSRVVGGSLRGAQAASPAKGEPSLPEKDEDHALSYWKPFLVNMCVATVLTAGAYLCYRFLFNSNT
Procedure: as §1, §2, §3, §4, §5, §6

Row | SMILES | DC50 [1] | Dmax [1] | clearance ([2]; 1 mg/kg) | concentration at 0.083 h ([2]; 1 mg/kg) | concentration at 0.25 h ([2]; 1 mg/kg) | concentration at 0.5 h ([2]; 1 mg/kg) | concentration at 1 h ([2]; 1 mg/kg) | concentration at 2 h ([2]; 1 mg/kg) | concentration at 4 h ([2]; 1 mg/kg) | concentration at 8 h ([2]; 1 mg/kg) | concentration at 10 h ([2]; 1 mg/kg) | concentration at 24 h ([2]; 1 mg/kg, 24 h) | AUC(0-t) ([2]; 1 mg/kg) | also measured
1 | CC1(C)CC(Nc2cccc(-c3sc(C(=O)O)c(OCC(=O)O)c3Cl)c2)CCN1S(=O)(=O)Cc1ccc2cnc(N3CCC(c4ccc5c6c(cccc46)C(=O)N5C4CCC(=O)NC4=O)CC3)nc2c1 (stereo not shown) [Compound 16] | 38.8 nM | 96.5% | – | – | – | – | – | – | – | – | – | – | – | –
2 | CC1(C)CC(Nc2cccc(-c3sc(C(=O)O)c(OCC(=O)O)c3Cl)c2)CCN1S(=O)(=O)Cc1ccc2oc(N3CCC(c4ccc5c6c(cccc46)C(=O)N5C4CCC(=O)NC4=O)CC3)nc2c1 (stereo not shown) [Compound 21] | 10.1 nM | 100% | 0.661 mL/min/kg | 18100 ng/mL | 14600 ng/mL | 9660 ng/mL | 5980 ng/mL | 2890 ng/mL | 1000 ng/mL | 372 ng/mL | 321 ng/mL | 98.6 ng/mL | 27200 ng·h/mL | EC50 [3]: 48 nM; Effect on PTP1B compared with PTPN2 at the same concentration (selectivity, FIG. 1), in words [4]: the degradation ability of PTPN2 is better than that of PTP1B; also recorded: much weaker than that of PTPN2; DC50 [4]: 861 nM; Dmax [4]: 97.3%; Degradation ability on PTPN2 protein at different concentrations (FIG. 1), in words ([1]; 5 nM to 20 μM): good degradation ability on PTPN2 protein in a dose-dependent manner; also recorded: completely degraded at high concentrations
3 | O=C(O)COc1c(C(=O)O)sc(-c2cccc(NC3CCN(S(=O)(=O)Cc4ccc5oc(N6CCC(c7ccc8c9c(cccc79)C(=O)N8C7CCC(=O)NC7=O)CC6)nc5c4)CC3)c2)c1Cl (stereo not shown) [Compound 23] | – | – | 0.684 mL/min/kg | 21700 ng/mL | 17900 ng/mL | 12600 ng/mL | 7110 ng/mL | 2420 ng/mL | 525 ng/mL | 110 ng/mL | 95.1 ng/mL | 39.6 ng/mL | 24700 ng·h/mL | –
4 | O=C(O)COc1c(C(=O)O)sc(-c2cccc(NC3CCN(S(=O)(=O)Cc4ccc5oc(N6CCC(c7ccc8c9c(cccc79)C(=O)N8C7CCC(=O)NC7=O)CC6)nc5c4)C4(CC4)C3)c2)c1Cl (stereo not shown) [Compound 57] | 51.2 nM | 97.2% | 0.351 mL/min/kg | 21900 ng/mL | 17000 ng/mL | 13200 ng/mL | 8730 ng/mL | 5430 ng/mL | 2870 ng/mL | 1090 ng/mL | 809 ng/mL | 206 ng/mL | 48700 ng·h/mL | –
5 | CC1(C)CC(Nc2cccc(-c3sc(C(=O)O)c(OC(F)(F)C(=O)O)c3Cl)c2)CCN1S(=O)(=O)Cc1ccc2oc(N3CCC(c4ccc5c6c(cccc46)C(=O)N5C4CCC(=O)NC4=O)CC3)nc2c1 (stereo not shown) [Compound 78] | 55.2 nM | 100% | – | – | – | – | – | – | – | – | – | – | – | –
6 | [2H]C([2H])(c1ccc2oc(N3CCC(c4ccc5c6c(cccc46)C(=O)N5C4CCC(=O)NC4=O)CC3)nc2c1)S(=O)(=O)N1CCC(Nc2cccc(-c3sc(C(=O)O)c(OCC(=O)O)c3Cl)c2)CC1(C)C (stereo not shown) [Compound 151] | – | – | 0.568 mL/min/kg | 19400 ng/mL | 14900 ng/mL | 11500 ng/mL | 7920 ng/mL | 3810 ng/mL | 1050 ng/mL | 345 ng/mL | 279 ng/mL | 57.5 ng/mL | 29700 ng·h/mL | –
7 | CC1(C)C[C@@H](Nc2cccc(-c3sc(C(=O)O)c(OCC(=O)O)c3Cl)c2)CCN1S(=O)(=O)Cc1cccc(NC(=O)N2CCC(c3ccc4c5c(cccc35)C(=O)N4[C@H]3CCC(=O)NC3=O)CC2)c1 [Ref. Cpd, reference compound] | 29.3 nM | 96.3% | – | – | – | – | – | – | – | – | – | – | – | Plasma concentration ([2]; 2 mg/kg, 24 h, LLOQ 0.50 ng/mL): BLOQ; clearance ([2]; 2 mg/kg): 4.46 mL/min/kg; concentration at 0.083 h ([2]; 2 mg/kg): 22700 ng/mL; concentration at 0.25 h ([2]; 2 mg/kg): 8300 ng/mL; concentration at 0.5 h ([2]; 2 mg/kg): 1290 ng/mL; concentration at 1 h ([2]; 2 mg/kg): 318 ng/mL; concentration at 2 h ([2]; 2 mg/kg): 148 ng/mL; concentration at 4 h ([2]; 2 mg/kg): 79.4 ng/mL; concentration at 8 h ([2]; 2 mg/kg): 29.3 ng/mL; concentration at 10 h ([2]; 2 mg/kg): 18.9 ng/mL; AUC(0-t) ([2]; 2 mg/kg): 7490 ng·h/mL; EC50 [3]: 473 nM; DC50 [4]: 271 nM; Dmax [4]: 96.8%
